# Reference: US9938562B2, “Naphthalene derived chromogenic enzyme substrates” (Glycosynth Limited, priority 2013, dated 2018)
# Key:
# [1] = tested on: Staphylococcus aureus (MRSA) NCTC 11939; test: Agar plate multi-point inoculation, colour; assay type: cell-based; conditions: Columbia agar, FAC 500 mg/L, substrate 300 mg/L, 37° C. 18 h in air
# [2] = tested on: Listeria monocytogenes NCTC 11994; test: Agar plate multi-point inoculation, colour; assay type: cell-based; conditions: Columbia agar, FAC 500 mg/L, substrate 300 mg/L, 37° C. 18 h in air
# [3] = tested on: Staphylococcus aureus NCTC 6571; test: Agar plate multi-point inoculation, colour; assay type: cell-based; conditions: Columbia agar, FAC 500 mg/L, substrate 300 mg/L, 37° C. 18 h in air
# [4] = tested on: Pseudomonas aeruginosa NCTC 10662; test: Agar plate multi-point inoculation, colour; assay type: cell-based; conditions: Columbia agar, FAC 500 mg/L, substrate 300 mg/L, 37° C. 18 h in air
# [5] = tested on: Serratia marcescens NCTC 10211; test: Agar plate multi-point inoculation, colour; assay type: cell-based; conditions: Columbia agar, FAC 500 mg/L, substrate 300 mg/L, 37° C. 18 h in air
# [6] = tested on: Enterobacter cloacae NCTC 11936; test: Agar plate multi-point inoculation, colour; assay type: cell-based; conditions: Columbia agar, FAC 500 mg/L, substrate 300 mg/L, 37° C. 18 h in air
# [7] = tested on: Burkholderia cepacia 1222; test: Agar plate multi-point inoculation, colour; assay type: cell-based; conditions: Columbia agar, FAC 500 mg/L, substrate 300 mg/L, 37° C. 18 h in air
# [8] = tested on: Yersinia enterocolitica NCTC 11176; test: Agar plate multi-point inoculation, colour; assay type: cell-based; conditions: Columbia agar, FAC 500 mg/L, substrate 300 mg/L, 37° C. 18 h in air
# [9] = tested on: Candida albicans ATCC 90028; assay type: cell-based; conditions: Columbia agar, FAC 500 mg/L, substrate 300 mg/L, 37° C. 18 h in air
# [10] = tested on: Candida glabrata NCPF 3943; test: Agar plate multi-point inoculation, colour; assay type: cell-based; conditions: Columbia agar, FAC 500 mg/L, substrate 300 mg/L, 37° C. 18 h in air
# [11] = tested on: Steptococcus pyogenes NCTC 8306; test: Agar plate multi-point inoculation, colour; assay type: cell-based; conditions: Columbia agar, FAC 500 mg/L, substrate 300 mg/L, 37° C. 18 h in air
# [12] = tested on: Gram-positive or Gram-negative strains; test: Toxicity / growth of microorganisms on substrate agar plates; assay type: cell-based; conditions: substrate 300 mg/L
# Method: This compound was tested on agar plates by multi-point inoculation. The plates were made from Columbia agar (Oxoid, Basingstoke, UK) (100 ml) supplemented with ferric ammonium citrate (FAC) (50 mg). After the agar had been autoclaved (121° C.) and cooled to 50° C., a filter sterilized solution of the substrate (8) (30 mg) dissolved in N-methylpyrrolidone (NMP) (200 μL) was added, thus giving a substrate concentration of 300 mg/L. After pouring, the plates were inoculated with a range of microorganisms and incubated at 37° C. for 18 h in air (Table 1).
# In the publication of Zincke and Fries, the authors reported that treatment of 1,4,6,7-tetrabromo-DHN (20) with tin (II) chloride led to the removal of the bromines in the 1 and 4 positions. Their work was repeated and the expected 6,7-dibromo-DHN (21) was obtained smoothly and in good yield (68%). 6,7-Dibromo-DHN (21) is isomeric with the 1,4-dibromo compound which had proven unsuccessful as an aglycone for the detection of microorganisms. Notwithstanding this latter fact, we proceeded to evaluate the properties of 6,7-dibromo-DHN […] as an aglycone for artificial chromogenic enzyme substrates. […]
# [13] = tested on: Escherichia coli NCTC 10418; test: Agar plate multi-point inoculation, colour; assay type: cell-based; conditions: Columbia agar, FAC 500 mg/L, substrate 300 mg/L, 37° C. 18 h in air
# [14] = tested on: Enterococcus faecalis NCTC 775; test: Agar plate multi-point inoculation, colour; assay type: cell-based; conditions: Columbia agar, FAC 500 mg/L, substrate 300 mg/L, 37° C. 18 h in air
# [15] = tested on: Morganella morganii 462403 (wild); test: Agar plate multi-point inoculation, colour; assay type: cell-based; conditions: Columbia agar, FAC 500 mg/L, substrate 300 mg/L, 37° C. 18 h in air
# range of microorganisms = test: Agar plate evaluation with a range of microorganisms (hue, diffusion, background); assay type: cell-based; conditions: for colour (hue) after hydrolysis: agar plates with FAC
# [16] = tested on: Salmonella typhimurium NCTC 74; test: Agar plate multi-point inoculation, colour; assay type: cell-based; conditions: Columbia agar, FAC 500 mg/L, substrate 300 mg/L, 37° C. 18 h in air
# [17] = tested on: Bacillus subtilis NCTC 9372; test: Agar plate multi-point inoculation, colour; assay type: cell-based; conditions: Columbia agar, FAC 500 mg/L, substrate 300 mg/L, 37° C. 18 h in air
# [18] = tested on: Providencia rettgeri NCTC 7475; test: Agar plate multi-point inoculation, colour; assay type: cell-based; conditions: Columbia agar, FAC 500 mg/L, substrate 300 mg/L, 37° C. 18 h in air
# [19] = tested on: Citrobacter freundii NCTC 9750 or 46262; test: Agar plate multi-point inoculation, colour; assay type: cell-based; conditions: Columbia agar, FAC 500 mg/L, substrate 300 mg/L, 37° C. 18 h in air
# [20] = tested on: Enterococcus faecium NCTC 7171; test: Agar plate multi-point inoculation, colour; assay type: cell-based; conditions: Columbia agar, FAC 500 mg/L, substrate 300 mg/L, 37° C. 18 h in air
# [21] = tested on: Staphylococcus epidermidis NCTC 11047; test: Agar plate multi-point inoculation, colour; assay type: cell-based; conditions: Columbia agar, FAC 500 mg/L, substrate 300 mg/L, 37° C. 18 h in air
# [22] = tested on: Klebsiella pneumoniae NCTC 9528; test: Agar plate multi-point inoculation, colour; assay type: cell-based; conditions: Columbia agar, FAC 500 mg/L, substrate 300 mg/L, 37° C. 18 h in air
# [23] = tested on: Burkholderia cepacia NCTC 10931; test: Agar plate multi-point inoculation, colour; assay type: cell-based; conditions: Columbia agar, FAC 500 mg/L, substrate 300 mg/L, 37° C. 18 h in air
# [24] = tested on: Acinetobacter baumannii NCTC 19606; test: Agar plate multi-point inoculation, colour; assay type: cell-based; conditions: Columbia agar, FAC 500 mg/L, substrate 300 mg/L, 37° C. 18 h in air
SMILES,Colour [1],Colour [2],Colour [3],Colour [4],Colour [5],Colour [6],Colour [8],Colour [9],Colour [10],Colour [11],Colour [13],Colour [14],colour (hue) after hydrolysis (range of microorganisms),Colour [16],Colour [17],Colour [18],Colour [20],Colour [21],further results
"OC[C@H]1O[C@@H](Oc2cc3cc(Br)c(Br)cc3cc2O)C(O)C1O (stereo partly drawn) [Compound 23, 6,7-Dibromo-DHN-β-D-ribofuranoside]",−,−,−,+,++,++,−,−,−,−,−,−,largely discrete red-brown or maroon colonies,++,−,−,−,−,Colour [7]: +/−; growth of Gram-positive bacteria [12]: mainly suppressed; Colour [15]: ++; Colour [19]: ++
"OCC1OC(Oc2cc3ccccc3cc2O)C(O)C(O)C1O [Compound 8, DHN-β-D-galactopyranoside]",−,−,−,−,+,++,−,−,−,−,++,−,strong purple-maroon colour,−,−,−,Tr.,−,"Colour [22]: ++; Colour [23]: −; melting point: > 230 °C (dec.); Colour [24]: −; toxicity to strains tested [12]: no obvious toxicity; formation of coloured chelate (range of microorganisms; plates incubated under anaerobic conditions): still formed; sensitivity after autoclaving substrate in agar (range of microorganisms; substrate added prior to autoclaving, 121° C. for 20 minutes): no decrease in sensitivity"
